This is an account of results in US8193239B2, “Substituted 1-cyanoethylheterocyclylcarboxamide compounds” (AstraZeneca AB, priority 2009, dated 2012).

Counter-ions that a name gives are not always drawn.

Chain of Recombinant Human (rh) DPP1 (P53634 231-394 limits assumed): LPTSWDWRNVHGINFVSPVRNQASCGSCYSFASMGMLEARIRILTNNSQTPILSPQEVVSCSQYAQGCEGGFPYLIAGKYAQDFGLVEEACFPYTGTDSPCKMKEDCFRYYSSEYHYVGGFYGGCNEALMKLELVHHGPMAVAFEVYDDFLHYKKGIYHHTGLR
Chain of Recombinant Human (rh) DPP1 (P53634 25-134 limits assumed): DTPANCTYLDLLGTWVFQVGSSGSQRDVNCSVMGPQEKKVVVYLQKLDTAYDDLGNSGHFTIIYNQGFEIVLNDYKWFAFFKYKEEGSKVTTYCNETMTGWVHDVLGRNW
Chain of Recombinant Human (rh) DPP1 (P53634 395-463 limits assumed): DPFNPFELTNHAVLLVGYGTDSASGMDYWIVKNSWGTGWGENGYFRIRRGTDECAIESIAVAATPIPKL

The experiment has as its target Recombinant Human (rh) DPP1 (Homo sapiens, UniProt P53634). Description: Fluorescence Assay for Recombinant Human (rh) DPP1. The following applies: rhDPP1, substrate H-Gly-Arg-AMC, pH5.0, 22° C., pre-incubated 30-60 min; read-out: DPP1 activity, pIC50 (converted). The experiment is classed as biochemical. The method, then: Fluorescence Assay for Recombinant Human (rh) DPP1
The activity of DPP1 was determined by measuring the enzymatic release of aminomethyl coumarin (AMC) from the peptide substrate (H-Gly-Arg-AMC), which leads to an increase in fluorescence intensity at λex=350 nm and λem=450 nm. The assay was carried out in black 384 well plates in a final volume of 50 μl at 22° C. The assay conditions contained the following: 25 mM piperazine buffer pH5.0; 50 mM NaCl, 5 mM DTT; 0.01% (v/v) Triton X-100; 100 μM H-Gly-Arg-AMC and rhDPP1 ([…]). […] A standard DPP1 inhibitor (vinyl sulfone, see below, or Example 24 from WO2009/074829) was used as a positive control in the assay. Routinely, inhibitors were pre-incubated with rhDPP1 for 30-60 min prior to the addition of the peptide substrate to start the reaction for a further 60 min at 22° C. After that the plates were immediately read in a fluorescence plate reader using the above emission and excitation wavelengths [modified from Kam, C M, Gotz, M G, Koot, G, McGuire, M J, Thiele, D L, Hudig, D & Powers, J C (2004). Arch Biochem Biophys, 427, 123-134 & McGuire, M J, Lipsky, P E & Thiele, D L (1992). Arch Biochem Biophys, 295, 280-288].
On to `CN1Cc2cc(-c3ccc(C[C@@H](C#N)NC(=O)C4(N)CCOCC4)cc3)ccc2C1=O` [Example 31, (S)-4-Amino-N-(1-cyano-2-(4-(2-methyl-1-oxoisoindolin-5-yl)phenyl)ethyl)tetrahydro-2H-pyran-4-carboxamide], for which the IC50 is 1.58 nM. Then `CN1Cc2cc(-c3ccc(C[C@@H](C#N)NC(=O)C4(N)CCOCC4)cc3)cnc2C1=O` [Example 32, (S)-4-Amino-N-(1-cyano-2-(4-(6-methyl-7-oxo-6,7-dihydro-5H-pyrrolo[3,4-b]pyridin-3-yl)phenyl)ethyl)tetrahydro-2H-pyran-4-carboxamide], with 5.01 nM; and `N#C[C@H](Cc1ccc(-c2ccc3oc(=O)[nH]c3c2)cc1)NC(=O)C1(N)CCOCC1` [Example 33, (S)-4-Amino-N-(1-cyano-2-(4-(2-oxo-2,3-dihydrobenzo[d]oxazol-5-yl)phenyl)ethyl)tetrahydro-2H-pyran-4-carboxamide trifluoroacetatic acid salt], with 0.398 nM; and `N#C[C@H](Cc1ccc(-c2ccc3c(c2)CS(=O)(=O)C3)cc1)NC(=O)C1(N)CCOCC1` [Example 34, 4-Amino-N-{(1S)-1-cyano-2-[4-(2,2-dioxido-1,3-dihydro-2-benzothiophen-5-yl)phenyl]ethyl}tetrahydro-2H-pyran-4-carboxamide], with 1.26 nM.
